From patent US20230190707A1, “COMPOSITIONS AND METHODS FOR ENHANCING CANCER IMMUNOTHERAPY” (FRED HUTCHINSON CANCER CENTER, priority 2020, published 2023)

Experiments:
OT-1 T cells [1] = experiment: Intracellular cytokine staining of OT-1 T cells; type: cell-based, mouse; conditions: higher doses
Method: OT-1 cells were prepared and incubated with ovalbumin-expressing tumors as described above in the LAMP-1 assay. For some experiments OT-1 cells were instead left unstimulated (DMSO) or treated with PMA 1 μg/mL+ionomycin 1 μM as a supraphysiologic stimulus. In all cases, T cells underwent a 5-6 hour incubation period in the presence of DMSO or splicing modulators at the indicated concentrations, and with brefeldin A and monensin present for the entire duration. Cells were subsequently washed, stained for surface markers, and then fixed/permeabilized for intracellular staining of the indicated cytokines according to manufacturer instructions (BD Biosciences).

CD5^+ splenic T cells = experiment: Anti-CD3/CD28 T cell activation and proliferation (CFSE); type: cell-based, mouse
Method: Cell lines were grown with half-log10 concentrations of the indicated drug in 4 to 8 technical replicates under standard conditions until the control condition (DMSO or vehicle) was confluent by microscopy. For tumor cell lines, viable cells were quantified via the CellTiter-Glo® assay (Promega Cat. G7573) as per manufacturer instructions. For the ex vivo proliferation of T cells, viable cells were instead quantified via flow cytometry using counting beads. The percentage or number of viable cells with drug treatment was calculated relative to DMSO control (as 100%). […] For absolute cell number, Annexin V+, CD25+, and PD1+ flow cytometry data presented in Figure S4, dose-response models and IC50 values were computed using the R language's dre package (Ritz, C., et al. (2015). Dose-Response Analysis Using R. PLoS One 10, e0146021).
Plates were coated with 10 μg/mL anti-CD3 (clone 145-2C11, Biolegend Cat. 100302) and 2 μg/mL anti-CD28 (clone 37.51, Biolegend Cat. 102102) in PBS overnight at 4° C. and washed twice with cold PBS prior to use. CFSE-labeled CD5-selected splenic T cells from naïve C57BL/6J mice were obtained identically as for adoptive cell transfer, and 5×10^4 cells incubated with coated plates in the presence of splicing inhibitor drugs at the indicated concentrations, followed by analysis by standard flow cytometry on day 3. Of note, for RNA-seq analyses, T cells were not labeled with CFSE, and underwent activation for 4 days (96 hours) in the presence of various splicing modulator drugs to harmonize experimental conditions with RNA-seq analyses of tumors treated with splicing inhibitors. For the RNA-seq experiments only, T cells in all conditions were also incubated with IL-2 at 50 U/mL to maximize viability and yield.

[2] = Histologic evaluation of immune-related tissue toxicities; type: in vivo, mouse; conditions: tumor-bearing mice
Method: Animal tissues were fixed in 4% paraformaldehyde, decalcified (for bone), dehydrated and paraffin embedded. Blocks were sectioned and stained with hematoxylin and eosin or anti-CD8. Images were acquired using an Axio Observer A1 microscope (Carl Zeiss, Oberkochen, Germany) or scanned using an Aperio AT slide scanner (Leica Biosystems, Buffalo Grove, Ill.). Automated quantification of infiltrating CD8^+ T cells was performed using HALO software (Indica labs, Albuquerque, N. Mex.). Pathologic evaluation of immune-related tissue toxicities was performed in a blinded fashion by one of the authors who is a trained pathologist (Ben Durham, MD).

[3] = tested on: OT-1 transgenic T cells against ovalbumin (OVA)-expressing B16-F10 cells; experiment: OT-1 cytotoxicity assay; type: cell-based, mouse; conditions: 18 hours; minimal impairment at doses less than 4 μM
Method: Bulk splenocytes from OT-1 animals were cultured for three days with 100 U/mL murine IL-2 and 100 μg/mL SIINFEKL (SEQ ID NO:1) peptide to activate CD8^+ T cells. Cultures were subsequently washed thoroughly to remove ova peptide and rested for at least 24 hours prior to use. OT-1 cells were passaged in T cell media with 50 U/mL IL-2 for no more than seven days from animal sacrifice prior to use. For the cytotoxicity assay, tumor cells alone or OT-1+tumor cells (1:1 ratio) were incubated in T cell media for 18 hours under standard conditions with the indicated concentrations of splicing drugs and analyzed by flow cytometry to quantify killing. OT-1 cells and other hematopoietic cells were excluded with the use of CD45, CD3, and CD8 staining. Tumor cell viability was measured using DAPI.

OT-1 T cells [4] = experiment: LAMP-1 T cell degranulation assay; type: cell-based, mouse; conditions: higher doses
Method: OT-1 cells were generated as described for the cytotoxicity assay and incubated with ovalbumin-expressing tumor cell lines (pre-treated overnight with IFNγ 100 U/mL to upregulate cell-surface MHC I) in the presence of DMSO or varying concentrations of splicing modulator drugs as indicated, in the presence of LAMP-1 antibody for 5-6 hours under standard incubator conditions. After the first hour of incubation, BD GolgiPlug™ (brefeldin A) and BD GolgiStop™ (monensin) was added at […] respectively into cells. At the end of incubation, cells were washed and stained for cell surface markers prior to standard flow cytometry.

donor T cells = experiment: CFSE adoptive T cell transfer with in vivo splicing modulator treatment; conditions: mouse, in vivo
Method: Splenic T cells were obtained from B6 or CD45.1 donors by CD5 positive selection (Miltenyi Biotec, Cat. 130-049-301), labeled with CellTrace CFSE (ThermoFisher Cat. C34570) at 10 μM, and adoptively transferred by tail vein injection into lethally irradiated B6, Balb/c, or LP/J recipients, with […] labeled donor T cells transferred per recipient. All recipients were irradiated on day −1 prior to adoptive T cell transfer with 7 Gy as a single fraction and continuously received splicing inhibitor drugs or vehicle control at the indicated doses, from day −1 until day of sacrifice, with the initial dose of drug at least 4 hours after lethal irradiation. Indisulam and MS-023 were solubilized for in vivo administration and animals were treated as above. Pladienolide B (Tocris, Cat. 6070) and GEX1A (Cayman Chemicals, Cat. 25136) were both dissolved in vehicle (10% ethanol and 4% Tween-80 in sterile PBS) and administered i.p., with pladienolide B dosed at 10 mg/kg every other day, and GEX1A dosed at 1.25 mg/kg every four days. For in vivo use, EPZ015666 was dissolved in DMSO and solubilized in 0.5% methylcellulose in water to 20 mg/mL; animals were treated daily with 200 mg/kg by oral gavage.

## CC(C)Oc1ccc(-c2c[nH]cc2CN(C)CCN)cc1 [MS-023]
OT-1 T cells [1]
  ability of OT-1 T cells to secrete IFNγ or TNFα: did not inhibit
CD5^+ splenic T cells
  T cell apoptosis and activation markers: much milder effects
[2]
  histologic inflammation or immune infiltrates in skin, lung, gut, or liver: did not result in overt histologic inflammation
[3]
  in vitro cytotoxicity of primed OT-1 T cells against OVA-expressing B16-F10 cells: minimally impaired
OT-1 T cells [4]
  ability of OT-1 T cells to degranulate intracellular cytolytic molecules: did not inhibit
Donor T cells
  in vivo T cell proliferation or activation in response to alloantigen: minimal impairment

## NS(=O)(=O)c1ccc(S(=O)(=O)Nc2cccc3c(Cl)c[nH]c23)cc1 [indisulam]
OT-1 T cells [1]
  ability of OT-1 T cells to secrete IFNγ or TNFα: did not inhibit
CD5^+ splenic T cells
  T cell apoptosis and activation markers: much milder effects
CD5^+ splenic T cells; Mus musculus, T-cell, 72 h, three days of continuous drug exposure, read-out: IC50 values, T cell proliferation following stimulation
  IC50: 1 to 10 µM
[2]
  histologic inflammation or immune infiltrates in skin, lung, gut, or liver: did not result in overt histologic inflammation
[3]
  in vitro cytotoxicity of primed OT-1 T cells against OVA-expressing B16-F10 cells: minimally impaired
OT-1 T cells [4]
  ability of OT-1 T cells to degranulate intracellular cytolytic molecules: did not inhibit
Donor T cells
  in vivo T cell proliferation or activation in response to alloantigen: minimal impairment
